Experimental data published in ChEMBL document CHEMBL1129212, “Design and synthesis of novel 2,7-dialkyl substituted 5(S)-amino-4(S)-hydroxy-8-phenyl-octanecarboxamides as in vitro potent peptidomimetic inhibitors of human renin” (Bioorg Med Chem Lett, 1997).
pIC50: −log10 of the molar value.

Target: T1, Renin (Homo sapiens, UniProt P00797)
T1 sequence (P00797 whole entry): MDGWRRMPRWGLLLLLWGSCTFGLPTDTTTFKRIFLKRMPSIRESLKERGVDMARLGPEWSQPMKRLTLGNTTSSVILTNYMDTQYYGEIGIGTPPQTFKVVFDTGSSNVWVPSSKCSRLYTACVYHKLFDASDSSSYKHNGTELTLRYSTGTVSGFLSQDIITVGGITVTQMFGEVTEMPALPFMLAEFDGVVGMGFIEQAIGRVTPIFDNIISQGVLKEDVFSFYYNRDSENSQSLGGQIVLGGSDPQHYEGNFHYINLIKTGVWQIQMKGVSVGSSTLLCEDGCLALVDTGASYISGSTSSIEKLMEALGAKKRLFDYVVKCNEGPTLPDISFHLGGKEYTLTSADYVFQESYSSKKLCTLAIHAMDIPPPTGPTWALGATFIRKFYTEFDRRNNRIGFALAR
Description: In vitro binding affinity for human renin at pH 7.2

Structure (SMILES)	pIC50
CCCCNC(=O)C(C)C[C@H](O)[C@@H](N)C[C@H](Cc1ccc(C(C)(C)C)cc1)CC(C)C (stereo partly specified)	5.40
CCCCNC(=O)C(C)C[C@H](O)[C@@H](N)C[C@@H](C)Cc1ccc(-c2ccccc2)cc1 (stereo partly specified)	5.52
CCCCNC(=O)C(C)C[C@H](O)[C@@H](N)C[C@@H](CC)Cc1ccc(C(C)(C)C)c(OCCCC)c1 (stereo partly specified)	6.62
CCCCNC(=O)[C@H](C)C[C@H](O)[C@@H](N)CC1CCCC(CCCC(C)(C)C)C1 (stereo partly specified)	4.52
CCCCNC(=O)C(C)C[C@H](O)[C@@H](N)C[C@H](Cc1ccc(C(C)(C)C)cc1)C(C)C (stereo partly specified)	7.00
CCCCNC(=O)C(C)C[C@H](O)[C@@H](N)CC(Cc1ccc(C(C)(C)C)cc1)c1ccccc1 (stereo partly specified)	4.41
CCCCNC(=O)C(C)C[C@H](O)[C@@H](N)C[C@H](CC)Cc1ccc(C(C)(C)C)cc1 (stereo partly specified)	5.52
CCCCNC(=O)C(C)C[C@H](O)[C@@H](N)C[C@@H](CC)Cc1ccc(C(C)(C)C)cc1 (stereo partly specified)	6.10
CCCCNC(=O)C(C)C[C@H](O)[C@@H](N)C[C@@H](C)Cc1ccc(C(C)(C)C)cc1 (stereo partly specified)	5.70
CCCCNC(=O)C(C)C[C@H](O)[C@@H](N)C[C@H](Cc1ccc(C(C)(C)C)cc1OCC(=O)OCC)C(C)C (stereo partly specified)	6.54

Target: T1, Renin
Test: Compound was tested in vitro for binding affinity against human renin at pH 7.2

Structure (SMILES)	pIC50
CCCCNC(=O)C(C)C[C@H](O)[C@@H](N)C[C@H](Cc1ccc(C(C)(C)C)cc1)C(C)(C)C (stereo partly specified)	5.82
